Literature values as cited in patent US20170042890A1, “METHODS OF REDUCING DECLINE IN VITAL CAPACITY” (Cytokinetics, Inc., priority 2014, published 2017).

Tests used:
[1] = administered concomitantly with tirasemtiv; prior studies; cited from earlier work
ALS = settings: cited from earlier work

Nc1nc2ccc(OC(F)(F)F)cc2s1 [riluzole]
Riluzole exposure [1]: approximately doubled
Effect on measurable parameters of neuromuscular or pulmonary function (ALS): does not improve
